# According to US11370798B2 (Vertex Pharmaceuticals Incorporated, priority 2012, dated 2022):
# Tested on: HCT116 colorectal cancer cells
# Assay: Cisplatin sensitization assay (96 h cell viability MTS);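 also: Test-compound concentration that lowers the Cisplatin IC50 by a set fold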
# Format: cell-based
# Details: compound and Cisplatin added simultaneously, Cisplatin sensitization value
# Procedure, shortened: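 Viability read by MTS (1 h at 37° C) after 96 h co-exposure at 37° C, 5% CO2. Test compound and cisplatin were dosed simultaneously in a full concentration matrix, each 2-fold serially diluted from 10 μM final; sensitization values binned in μM.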
row,Compound,Cisplatin Sensitization Assay
1,"Nc1nn2cc(Cl)cnc2c1C(=O)Nc1cnccc1O[C@H]1CCOC1 [I-O-58, (S)-2-amino-6-chloro-N-(4-((tetrahydrofuran-3-yl)oxy)pyridin-3-yl)pyrazolo[1,5-a]pyrimidine-3-carboxamide]",+++ (Cisplatin sensitization value of <0.02 μM)
2,"Nc1nn2cc(Cl)cnc2c1C(=O)Nc1cnccc1OCC(F)(F)F [I-O-59, 2-amino-6-chloro-N-(4-(2,2,2-trifluoroethoxy)pyridin-3-yl)pyrazolo[1,5-a]pyrimidine-3-carboxamide]",+++ (Cisplatin sensitization value of <0.02 μM)
3,"Nc1nn2cc(Cl)cnc2c1C(=O)Nc1cnccc1OCCN1CCOCC1 [I-O-60, 2-amino-6-chloro-N-(4-(2-morpholinoethoxy)pyridin-3-yl)pyrazolo[1,5-a]pyrimidine-3-carboxamide]",++ (Cisplatin sensitization value>0.02 μM but <0.2 μM)
4,"Nc1nn2cc(Cl)cnc2c1C(=O)Nc1cnccc1OC1CCOCC1 [I-O-61, 2-amino-6-chloro-N-(4-((tetrahydro-2H-pyran-4-yl)oxy)pyridin-3-yl)pyrazolo[1,5-a]pyrimidine-3-carboxamide]",+++ (Cisplatin sensitization value of <0.02 μM)
5,"Nc1nn2cc(Cl)cnc2c1C(=O)Nc1cnccc1OC1CN2CCC1CC2 (stereo not shown) [I-O-62, 2-amino-6-chloro-N-(4-(quinuclidin-3-yloxy)pyridin-3-yl)pyrazolo[1,5-a]pyrimidine-3-carboxamide]",+++ (Cisplatin sensitization value of <0.02 μM)
6,"CN1CC[C@@H](Oc2ccncc2NC(=O)c2c(N)nn3cc(Cl)cnc23)C1 [I-O-63, (R)-2-amino-6-chloro-N-(4-((1-methylpyrrolidin-3-yl)oxy)pyridin-3-yl)pyrazolo[1,5-a]pyrimidine-3-carboxamide]",++ (Cisplatin sensitization value>0.02 μM but <0.2 μM)
7,"CN1CCC(Oc2ccncc2NC(=O)c2c(N)nn3cc(Cl)cnc23)CC1 [I-O-64, 2-amino-6-chloro-N-(4-((1-methylpiperidin-4-yl)oxy)pyridin-3-yl)pyrazolo[1,5-a]pyrimidine-3-carboxamide]",+++ (Cisplatin sensitization value of <0.02 μM)
8,"Nc1nn2cc(Cl)cnc2c1C(=O)Nc1cnccc1OC1CCCOC1 (stereo not shown) [I-O-65, 2-amino-6-chloro-N-(4-((tetrahydro-2H-pyran-3-yl)oxy)pyridin-3-yl)pyrazolo[1,5-a]pyrimidine-3-carboxamide]",+++ (Cisplatin sensitization value of <0.02 μM)
9,"Nc1nn2cc(Cl)cnc2c1C(=O)Nc1cnccc1OCCO [I-O-66, 2-amino-6-chloro-N-(4-(2-hydroxyethoxy)pyridin-3-yl)pyrazolo[1,5-a]pyrimidine-3-carboxamide]",+ (Cisplatin sensitization value>0.2 μM but <5 μM)
10,"COCCN1CCC[C@H](Oc2ccncc2NC(=O)c2c(N)nn3cc(Cl)cnc23)C1 [I-O-67, (S)-2-amino-6-chloro-N-(4-((1-(2-methoxyethyl)piperidin-3-yl)oxy)pyridin-3-yl)pyrazolo[1,5-a]pyrimidine-3-carboxamide]",++ (Cisplatin sensitization value>0.02 μM but <0.2 μM)
11,"CN(C)CCOc1cc(Cl)ncc1NC(=O)c1c(N)nn2cc(Cl)cnc12 [I-O-68, 2-amino-6-chloro-N-(6-chloro-4-(2-(dimethylamino)ethoxy)pyridin-3-yl)pyrazolo[1,5-a]pyrimidine-3-carboxamide]",++ (Cisplatin sensitization value>0.02 μM but <0.2 μM)
12,"CN1CC[C@H](Oc2ccncc2NC(=O)c2c(N)nn3cc(Cl)cnc23)C1 [I-O-69, (S)-2-amino-6-chloro-N-(4-((1-methylpyrrolidin-3-yl)oxy)pyridin-3-yl)pyrazolo[1,5-a]pyrimidine-3-carboxamide]",++ (Cisplatin sensitization value>0.02 μM but <0.2 μM)
13,"Nc1nn2cc(Cl)cnc2c1C(=O)Nc1cnccc1Oc1cccnc1 [I-O-70, 2-amino-6-chloro-N-(4-(pyridin-3-yloxy)pyridin-3-yl)pyrazolo[1,5-a]pyrimidine-3-carboxamide]",+++ (Cisplatin sensitization value of <0.02 μM)
14,"CN(C)CCOc1cc(C(F)(F)F)ncc1NC(=O)c1c(N)nn2cc(Cl)cnc12 [I-O-71, 2-amino-6-chloro-N-(4-(2-(dimethylamino)ethoxy)-6-(trifluoromethyl)pyridin-3-yl)pyrazolo[1,5-a]pyrimidine-3-carboxamide]",+ (Cisplatin sensitization value>0.2 μM but <5 μM)
15,"Nc1nn2cc(Cl)cnc2c1C(=O)Nc1cnccc1OC1CC2(CNC2)C1 [I-O-72, N-(4-(2-azaspiro[3.3]heptan-6-yloxy)pyridin-3-yl)-2-amino-6-chloropyrazolo[1,5-a]pyrimidine-3-carboxamide]",+ (Cisplatin sensitization value>0.2 μM but <5 μM)
16,"Nc1nn2cc(Cl)cnc2c1C(=O)Nc1cnccc1OC1CNC1 [I-O-73, 2-amino-N-(4-(azetidin-3-yloxy)pyridin-3-yl)-6-chloropyrazolo[1,5-a]pyrimidine-3-carboxamide]",+ (Cisplatin sensitization value>0.2 μM but <5 μM)

row,Compound,Cisplatin Sensitization Assay
1,"Nc1nn2cc(Cl)cnc2c1C(=O)Nc1cnccc1O[C@H]1CCCNC1 [I-O-74, (S)-2-amino-6-chloro-N-(4-(piperidin-3-yloxy)pyridin-3-yl)pyrazolo[1,5-a]pyrimidine-3-carboxamide]",++ (Cisplatin sensitization value>0.02 μM but <0.2 μM)
2,"Nc1nn2cc(Cl)cnc2c1C(=O)Nc1cnccc1OC1CCCNC1 (stereo not shown) [I-O-75, 2-amino-6-chloro-N-(4-(piperidin-3-yloxy)pyridin-3-yl)pyrazolo[1,5-a]pyrimidine-3-carboxamide]",++ (Cisplatin sensitization value>0.02 μM but <0.2 μM)
3,"Nc1nn2cc(Cl)cnc2c1C(=O)Nc1cnccc1O[C@H]1CCNC1 [I-O-76, (S)-2-amino-6-chloro-N-(4-(pyrrolidin-3-yloxy)pyridin-3-yl)pyrazolo[1,5-a]pyrimidine-3-carboxamide]",++ (Cisplatin sensitization value>0.02 μM but <0.2 μM)
4,"Nc1nn2cc(Cl)cnc2c1C(=O)Nc1cnccc1O[C@@H]1CCNC1 [I-O-77, (R)-2-amino-6-chloro-N-(4-(pyrrolidin-3-yloxy)pyridin-3-yl)pyrazolo[1,5-a]pyrimidine-3-carboxamide]",++ (Cisplatin sensitization value>0.02 μM but <0.2 μM)
5,"Nc1nn2cc(Cl)cnc2c1C(=O)Nc1cnccc1O[C@H]1C[C@]2(CCN2)C1 [I-O-78, N-(4-((4s,6r)-1-azaspiro[3.3]heptan-6-yloxy)pyridin-3-yl)-2-amino-6-chloropyrazolo[1,5-a]pyrimidine-3-carboxamide]",+ (Cisplatin sensitization value>0.2 μM but <5 μM)
6,"Nc1nn2cc(Cl)cnc2c1C(=O)Nc1cnccc1O[C@H]1C[C@@]2(CCN2)C1 [I-O-79, N-(4-((4r,6s)-1-azaspiro[3.3]heptan-6-yloxy)pyridin-3-yl)-2-amino-6-chloropyrazolo[1,5-a]pyrimidine-3-carboxamide]",++ (Cisplatin sensitization value>0.02 μM but <0.2 μM)
7,"Nc1nn2cc(Cl)cnc2c1C(=O)Nc1cnccc1OC1CCNCC1 [I-O-80, 2-amino-6-chloro-N-(4-(piperidin-4-yloxy)pyridin-3-yl)pyrazolo[1,5-a]pyrimidine-3-carboxamide]",+++ (Cisplatin sensitization value of <0.02 μM)
8,"Nc1nn2cc(Cl)cnc2c1C(=O)Nc1cnccc1O[C@@H]1CCCNC1 [I-O-81, (R)-2-amino-6-chloro-N-(4-(piperidin-3-yloxy)pyridin-3-yl)pyrazolo[1,5-a]pyrimidine-3-carboxamide]",++ (Cisplatin sensitization value>0.02 μM but <0.2 μM)
9,"N#CCc1cnc2c(C(=O)Nc3cnccc3OC3CNC3)c(N)nn2c1 [I-O-82, 2-amino-N-(4-(azetidin-3-yloxy)pyridin-3-yl)-6-(cyanomethyl)pyrazolo[1,5-a]pyrimidine-3-carboxamide]",++ (Cisplatin sensitization value>0.02 μM but <0.2 μM)
10,"N#CCc1cnc2c(C(=O)Nc3cnccc3OCCN)c(N)nn2c1 [I-O-83, 2-amino-N-(4-(2-aminoethoxy)pyridin-3-yl)-6-(cyanomethyl)pyrazolo[1,5-a]pyrimidine-3-carboxamide]",+++ (Cisplatin sensitization value of <0.02 μM)
11,"N#CCc1cnc2c(C(=O)Nc3cnccc3OC3CCNCC3)c(N)nn2c1 [I-O-84, 2-amino-6-(cyanomethyl)-N-(4-(piperidin-4-yloxy)pyridin-3-yl)pyrazolo[1,5-a]pyrimidine-3-carboxamide]",++ (Cisplatin sensitization value>0.02 μM but <0.2 μM)
12,"Nc1nn2cc(F)cnc2c1C(=O)Nc1cnccc1O[C@H]1CCCNC1 [I-O-85, (S)-2-amino-6-fluoro-N-(4-(piperidin-3-yloxy)pyridin-3-yl)pyrazolo[1,5-a]pyrimidine-3-carboxamide]",+++ (Cisplatin sensitization value of <0.02 μM)
13,"N#CCc1cnc2c(C(=O)Nc3cnccc3O[C@H]3CCNC3)c(N)nn2c1 [I-O-86, (S)-2-amino-6-(cyanomethyl)-N-(4-(pyrrolidin-3-yloxy)pyridin-3-yl)pyrazolo[1,5-a]pyrimidine-3-carboxamide]",++ (Cisplatin sensitization value>0.02 μM but <0.2 μM)
14,"N#CCc1cnc2c(C(=O)Nc3cnccc3O[C@@H]3CCNC3)c(N)nn2c1 [I-O-87, (R)-2-amino-6-(cyanomethyl)-N-(4-(pyrrolidin-3-yloxy)pyridin-3-yl)pyrazolo[1,5-a]pyrimidine-3-carboxamide]",++ (Cisplatin sensitization value>0.02 μM but <0.2 μM)
15,"CC(C)(C)Oc1ccncc1NC(=O)c1c(N)nn2cc(F)cnc12 [I-O-88, 2-amino-N-(4-(tert-butoxy)pyridin-3-yl)-6-fluoropyrazolo[1,5-a]pyrimidine-3-carboxamide]",+++ (Cisplatin sensitization value of <0.02 μM)
